Values quoted from earlier work as cited in patent US6534473B1, “Process for the manufacture of tablet detergent compositions” (Unilever Patent Holdings BV, priority 1998, dated 2003).
Where two headings read alike, the source gives them in different places.

[1] = at 20° C., other common materials, by contrast

Structure (SMILES)	Water Solubility [1] [g/100 g]	solubility in water (at 20° C.)	Water Solubility (grams of solid to form a saturated solution in 100 grams of water at 20° C., highly water-soluble materials) [g/100 g]
O=BO[O-].[Na+] [Sodium perborate anhydrous]	3.7	–	–
O=P(O)(O)OP(=O)(O)OP(=O)(O)O [Sodium tripolyphosphate anhydrous]	15	–	–
NC(N)=O [Urea]	–	exceeding 100 gms per 100 ml water	>100
